Experiments:
[1] = tested on: HeLa cells or neuronal cells; assay: Cell death assay of Example 3 (MNNG, alamarBlue; protection against parthanatos, Table 4); format: cell-based; conditions: 1 μM test compound; for (%) inhibition of cell death: MNNG-induced cell death, alamarBlue
Procedure, shortened: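 HeLa or neuronal cells (1×10^4/well) were pretreated 1 h at 37° C with 1 μM compound, exposed to MNNG for 15 min, washed, then re-incubated 18 h with 1 μM compound. Viability was read by alamarBlue fluorescence (ex 560/em 590 nm). Cell death was expressed relative to control wells.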

[2] = biological target: T1, MIF (Homo sapiens, UniProt P14174); assay: Nuclease assay of Example 3 (MIF inhibitory activity, Table 4); format: biochemical; set-up: (%) inhibition of MIF nuclease activity: concentration or dose not given beside the values; conditions: for (%) inhibition of MIF nuclease activity: nuclease assay of Example 3
T1 sequence (P14174 1-115): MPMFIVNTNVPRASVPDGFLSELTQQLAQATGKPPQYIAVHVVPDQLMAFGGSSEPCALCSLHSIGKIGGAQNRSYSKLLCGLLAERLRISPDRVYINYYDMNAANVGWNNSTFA
Procedure, shortened: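 Human genomic DNA (200 ng), pcDNA (200 ng) or PS^30-type substrates (1 μM) were incubated with MIF (0.25-8 μM final) in 10 mM Tris-HCl pH 7.0, 10 mM MgCl2, 1 mM DTT at 37 °C for 1 h (pcDNA, small substrates) or 4 h (genomic DNA). Cleavage was assessed by agarose or PAGE electrophoresis with EtBr staining and chemiluminescent detection of biotin-labelled DNA.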

| (%) inhibition of MIF nuclease activity [2] [%] | MIF nuclease activity [2] | SMILES | (%) inhibition of cell death [1] [%] | protection against parthanatos (cell death) [1] | (%) inhibition of cell death ([1]; 1 µM) [%] |
| --- | --- | --- | --- | --- | --- |
| 76.3 |  | COc1ccc(CC[C@H]2OC(=O)[C@@H]3CCCCN3C(=O)C(=O)C(C)(C)COC(=O)C=CCCN(C)C(=O)[C@@H](CC(C)C)NC(=O)[C@H](Cc3ccccc3)N(C)C(=O)[C@@H](C)NC(=O)CN(C)C(=O)COc3cccc2c3)cc1OC [compound 67] | 73.7 |  |  |
| 57.9 |  | COc1ccc(CC[C@H]2OC(=O)[C@@H]3CCCCN3C(=O)C(=O)C(C)(C)COC(=O)C=CCCN(C)C(=O)[C@H](CC(C)C)NC(=O)[C@H](COC(C)(C)C)N(C)C(=O)[C@H](Cc3ccc4ccccc4c3)NC(=O)[C@H](C)N(C)C(=O)COc3cccc2c3)cc1OC [compound 21] | 61.0 |  |  |
| 15.8 |  | COc1ccc(CC[C@H]2OC(=O)[C@@H]3CCCCN3C(=O)C(=O)C(C)(C)COC(=O)C=CCCN(C)C(=O)[C@H](c3ccccc3)NC(=O)C(C(C)C)N(C)C(=O)[C@@H](Cc3ccccc3)NC(=O)[C@H](CC(C)C)N(C)C(=O)CCC(=O)Nc3cccc2c3)cc1OC (stereo partly shown) [compound 90] | 48.5 |  |  |
| 5.0 |  | COc1ccc(CC[C@H]2OC(=O)[C@@H]3CN(C(=O)OCC4c5ccccc5-c5ccccc54)CCN3C(=O)C(=O)C(C)(C)COC(=O)C=CCCN(C)C(=O)[C@@H]3CCCN3C(=O)[C@H](COC(C)(C)C)N(C)C(=O)C(c3ccccc3)NC(=O)[C@H](C)N(C)C(=O)COc3cccc2c3)cc1OC (stereo partly shown) [compound 127] | 46.4 |  |  |
| 13.3 |  | COc1ccc(CC[C@H]2OC(=O)[C@@H]3CCCCN3C(=O)C(=O)C(C)(C)COC(=O)C=CCCN(C)C(=O)[C@H](C(C)C)NC(=O)[C@H](COC(C)(C)C)N(C)C(=O)C(c3ccccc3)NC(=O)[C@H](C)N(C)C(=O)COc3cccc2c3)cc1OC (stereo partly shown) [compound 59] | 58.9 |  |  |
| 56.8 |  | COc1ccc(CC[C@H]2OC(=O)[C@@H]3CCCCN3C(=O)C(=O)C(C)(C)COC(=O)C=CCCN(C)C(=O)[C@H](Cc3ccc(F)cc3)NC(=O)[C@H](COC(C)(C)C)N(C)C(=O)[C@@H](CC(C)C)NC(=O)CN(C)C(=O)COc3cccc2c3)cc1OC [compound 10] | 57.2 |  |  |
| 19.2 |  | COc1ccc(CC[C@H]2OC(=O)[C@@H]3CCCCN3C(=O)C(=O)C(C)(C)COC(=O)C=CCCN(C)C(=O)[C@@H]3CCCN3C(=O)[C@H](COC(C)(C)C)N(C)C(=O)C(c3ccccc3)NC(=O)[C@H](C)N(C)C(=O)COc3ccc(F)c2c3)cc1OC (stereo partly shown) [compound 112] | 48.3 |  |  |
| 59.4 |  | COc1ccc(CC[C@H]2OC(=O)[C@@H]3CCCCN3C(=O)C(=O)C(C)(C)COC(=O)C=CCCN(C)C(=O)[C@H](c3ccccc3)NC(=O)[C@H](COC(C)(C)C)N(C)C(=O)C(c3ccccc3)NC(=O)[C@H](C)N(C)C(=O)COc3cccc2c3)cc1OC (stereo partly shown) [compound 60] | 55.4 |  |  |
| −5.1 | do not inhibit MIF nuclease activity | COc1ccc(OC)c(OC)c1CC[C@H]1OC(=O)[C@@H]2CCCCN2C(=O)C(=O)C(C)(C)COC(=O)C=CCCN(C)C(=O)[C@@H]2CCCN2C(=O)[C@H](COC(C)(C)C)N(C)C(=O)C(c2ccccc2)NC(=O)[C@H](C)N(C)C(=O)COc2cccc1c2 (stereo partly shown) [compound 123] | 82.4 | protect against parthanatos |  |
| 18.5 |  | COc1ccc(CC[C@H]2OC(=O)[C@@H]3CCCCN3C(=O)C(=O)C(C)(C)COC(=O)C=CCCN(C)C(=O)[C@H](CC(C)C)NC(=O)[C@H](COC(C)(C)C)N(C)C(=O)C(c3ccccc3)NC(=O)CN(C)C(=O)COc3cccc2c3)cc1OC (stereo partly shown) [compound 36] | 51.0 |  |  |
| 63.7 |  | COc1ccc(CC[C@H]2OC(=O)[C@@H]3CCCCN3C(=O)C(=O)C(C)(C)COC(=O)C=CCCN(C)C(=O)[C@H](C)NC(=O)[C@H](COC(C)(C)C)N(C)C(=O)[C@H](Cc3ccc4ccccc4c3)NC(=O)[C@H](C)N(C)C(=O)COc3cccc2c3)cc1OC [compound 17] | 78.3 |  |  |
| 20.1 |  | COCC[C@@H]1NC(=O)[C@H](Cc2ccccc2)N(C)C(=O)[C@@H](C)NC(=O)CN(C)C(=O)COc2cccc(c2)[C@@H](CCc2ccc(OC)c(OC)c2)OC(=O)[C@@H]2CCCCN2C(=O)C(=O)C(C)(C)COC(=O)C=CCCN(C)C1=O [compound 65] | 54.4 |  |  |
| 6.7 |  | COc1ccc(CC[C@H]2OC(=O)[C@@H]3CCCCN3C(=O)C(=O)C(C)(C)COC(=O)C=CCCN(C)C(=O)[C@@H]3CCCN3C(=O)[C@H](COC(C)(C)C)N(C)C(=O)C(c3ccccc3)NC(=O)[C@H](C)N(C)C(=O)COc3cncc2c3)cc1OC (stereo partly shown) [compound 126] | 46.8 |  |  |
| 9.9 |  | COc1ccc(CC[C@H]2OC(=O)[C@@H]3CCCCN3C(=O)C(=O)C(C)(C)COC(=O)C=CCCN(C)C(=O)[C@@H](CC(C)C)NC(=O)[C@H](COC(C)(C)C)N(C)C(=O)C(c3ccccc3)NC(=O)[C@H](C)N(C)C(=O)COc3cccc2c3)cc1OC (stereo partly shown) [compound 52] | 61.0 |  |  |
| 10.7 |  | COc1ccc(CC[C@H]2OC(=O)[C@@H]3CCCCN3C(=O)C(=O)C(C)(C)COC(=O)C=CCCN(C)C(=O)[C@@H]3CCCN3C(=O)[C@H](COC(C)(C)C)N(C)C(=O)C(c3ccccc3)NC(=O)C(c3ccccc3)N(C)C(=O)COc3cccc2c3)cc1OC (stereo partly shown) [compound 144] | 51.3 |  |  |
| 17.1 |  | COc1ccc(CC[C@H]2OC(=O)[C@@H]3CCCCN3C(=O)C(=O)C(C)(C)COC(=O)C=CCCN(C)C(=O)[C@H](CC3CCCCC3)NC(=O)[C@H](C(C)C)N(C)C(=O)[C@@H](Cc3ccccc3)NC(=O)[C@H](CC(C)C)N(C)C(=O)CCC(=O)Nc3cccc2c3)cc1OC [compound 87] | 51.3 |  |  |
| 61.5 |  | COc1ccc(CC[C@H]2OC(=O)[C@@H]3CCCCN3C(=O)C(=O)C(C)(C)COC(=O)C=CCCN(C)C(=O)[C@@H](C)NC(=O)[C@H](COC(C)(C)C)N(C)C(=O)C(c3ccccc3)NC(=O)[C@H](C)N(C)C(=O)COc3cccc2c3)cc1OC (stereo partly shown) [compound 48] | 49.2 |  |  |
| 24.2 |  | CCC[C@@H]1NC(=O)[C@H](COC(C)(C)C)N(C)C(=O)C(c2ccccc2)NC(=O)CN(C)C(=O)COc2cccc(c2)[C@@H](CCc2ccc(OC)c(OC)c2)OC(=O)[C@@H]2CCCCN2C(=O)C(=O)C(C)(C)COC(=O)C=CCCN(C)C1=O (stereo partly shown) [compound 34] | 58.4 |  |  |
| 10.7 |  | COc1cc(OC)c(OC)cc1CC[C@H]1OC(=O)[C@@H]2CCCCN2C(=O)C(=O)C(C)(C)COC(=O)C=CCCN(C)C(=O)[C@@H]2CCCN2C(=O)[C@H](COC(C)(C)C)N(C)C(=O)C(c2ccccc2)NC(=O)[C@H](C)N(C)C(=O)COc2cccc1c2 (stereo partly shown) [compound 122] | 64.3 |  |  |
| 21.9 |  | COc1ccc(CC[C@H]2OC(=O)[C@@H]3CCCCN3C(=O)C(=O)C(C)(C)COC(=O)C=CCCN(C)C(=O)[C@H](Cc3ccc4ccccc4c3)NC(=O)[C@H](COC(C)(C)C)N(C)C(=O)[C@@H](CC(C)C)NC(=O)CN(C)C(=O)COc3cccc2c3)cc1OC [compound 13] | 46.7 |  |  |
| 44.0 |  | COc1ccc(CC[C@H]2OC(=O)[C@@H]3CCCCN3C(=O)C(=O)C(C)(C)COC(=O)C=CCCN(C)C(=O)[C@H](Cc3ccccc3)NC(=O)[C@H](Cc3ccccc3)N(C)C(=O)[C@@H](C)NC(=O)CN(C)C(=O)COc3cccc2c3)cc1OC [compound 68] | 58.0 |  |  |
| 40.3 |  | COc1ccc(CC[C@H]2OC(=O)[C@@H]3CCCCN3C(=O)C(=O)C(C)(C)COC(=O)C=CCCN(C)C(=O)[C@@H](Cc3ccccc3)NC(=O)[C@H](COC(C)(C)C)N(C)C(=O)[C@H](Cc3ccc4ccccc4c3)NC(=O)[C@H](C)N(C)C(=O)COc3cccc2c3)cc1OC [compound 24] | 57.4 |  |  |

| SMILES | (%) inhibition of MIF nuclease activity [2] [%] | MIF nuclease activity [2] | (%) inhibition of cell death [1] [%] | protection against parthanatos (cell death) [1] | (%) inhibition of cell death ([1]; 1 µM) [%] |
| --- | --- | --- | --- | --- | --- |
| COc1ccc(CC[C@H]2OC(=O)[C@@H]3CCCCN3C(=O)C(=O)C(C)(C)COC(=O)C=CCCN(C)C(=O)[C@@H]3CCCN3C(=O)[C@H](CO)N(C)C(=O)C(c3ccccc3)NC(=O)C(CO)N(C)C(=O)COc3cccc2c3)cc1OC (stereo partly shown) [compound 108] | 4.2 |  | 20.4 |  |  |
| COc1ccc(CC[C@H]2OC(=O)[C@@H]3CCCCN3C(=O)C(=O)C(C)(C)COC(=O)C=CCCN(C)C(=O)[C@@H]3CCCN3C(=O)[C@H](COC(C)(C)C)N(C)C(=O)C(c3ccccc3)NC(=O)[C@H](C)N(C)C(=O)COc3cccc2c3)cc1OC (stereo partly shown) [compound 152] | −2.4 |  |  |  | 43.0 |
| COc1ccc(CC[C@H]2OC(=O)[C@@H]3CCCCN3C(=O)C(=O)C(C)(C)COC(=O)C=CCCN(C)C(=O)CNC(=O)[C@H](COC(C)(C)C)N(C)C(=O)C(c3ccccc3)NC(=O)CN(C)C(=O)COc3cccc2c3)cc1OC (stereo partly shown) [compound 31] | 22.9 |  | 52.3 |  |  |
